The record followed here is patent US6426229B1, “Chelating agent and detergent comprising the same” (Mitsubishi Rayon Co., Ltd., priority 1995, dated 2002).

One series in a line: Compression strength (hardening property) of powder stored under load for 2 months. The series is classed as physicochemical. Conditions: Load 100 (table head [Kg]; text 100 g/cm^2); 20-30° C., relative humidity 40-70%. The method, then:
Method for the Measurement of Compression Strength
(1) A test sample (500 g) is put in a poly-ethylene bag of 20 cm×20 cm in a room at a temperature of 20-30° C. and a relative humidity of 40-70%. The powder is levelled to an area of 20 cm×20 cm and air is forced out of the bag, and, then, the bag is sealed. This bag is further put in a kraft bag and this kraft bag is sealed.
(2) The kraft bag of (1) is placed horizontally on a flat plate and a plate is put thereon. […]
(3) With keeping the temperature of 20-30° C. and the relative humidity of 40-70%, the test sample is taken out after lapse of 2 months from the starting of application of load. Several test pieces (4 cm long×4 cm broad×2 cm high) are cut out from the sample.
Regarding `O=C(O)C[C@H](NCCN[C@@H](CC(=O)O)C(=O)O)C(=O)O` [compound 21, ethylenediaminedisuccinic acid, reference compound], the “Compression strength after stored for 2 months” value turned out to be 2.8 Kg/cm^2. As to `C[C@@H](C(=O)O)N(CC(=O)O)CC(=O)O` [Example 20, (S)-α-alanine-N,N-diacetic acid], the “Compression strength after stored for 2 months” value is 1.0 Kg/cm^2. Take `O=C([O-])C[C@H](NCCN[C@@H](CC(=O)[O-])C(=O)[O-])C(=O)[O-].[Fe+3].[NH4+]` [compound 26, iron ammonium (S,S)-ethylenediaminedisuccinate, reference compound]: the “Compression strength after stored for 2 months” value worked out at 2.7 Kg/cm^2.

`O=C([O-])CN(CCS(=O)(=O)[O-])CC(=O)[O-].[Na+].[Na+].[Na+]` [Example 28, trisodium salt of taurine-N,N-diacetic acid]: the “Compression strength after stored for 2 months” value was 1.3 Kg/cm^2. On the same count and under the same terms, the same measure for `O=C(O)CCN[C@@H](CC(=O)O)C(=O)O` [Example 18, (S)-aspartic acid-N-monopropionic acid]: 1.2 Kg/cm^2. For the molecule `O=C([O-])C[C@H](NCCN[C@@H](CC(=O)[O-])C(=O)[O-])C(=O)[O-].[Na+].[Na+].[Ni+2]` [compound 28, nickel disodium (S,S)-ethylenediaminedisuccinate, reference compound], the “Compression strength after stored for 2 months” value stood at 2.5 Kg/cm^2.

Turning to `O=C(O)C[C@H](NCCCN[C@@H](CC(=O)O)C(=O)O)C(=O)O` [compound 24, (S,S)-1,3-propanediaminedisuccinic acid, reference compound], the “Compression strength after stored for 2 months” value was found to be 2.8 Kg/cm^2.

For the molecule `O=C([O-])C[C@H](NCCN[C@@H](CC(=O)[O-])C(=O)[O-])C(=O)[O-].[Cu+2].[Na+].[Na+]` [compound 27, copper disodium (S,S)-ethylenediaminedisuccinate, reference compound], the “Compression strength after stored for 2 months” value is given as 2.8 Kg/cm^2. Same read-out and setting: the same measure for `O=C(O)C[C@H](NCCCN[C@@H](CC(=O)O)C(=O)O)C(=O)O` [Example 69, (S,S)-1,3-propanediaminedisuccinic acid]: 1.0 Kg/cm^2; for `CN(CC(=O)[O-])CC(=O)[O-].[Na+].[Na+]` [compound 10, disodium N-methyliminodiacetate, reference compound]: 2.6 Kg/cm^2; for “iron salt of anthranilic acid-N,N-diacetic acid [compound 15, reference compound]”: 2.5 Kg/cm^2.

In the case of `O=C([O-])C[C@@H](C(=O)[O-])N(CC(=O)[O-])CC(=O)[O-].[Na+].[Na+].[Na+].[Na+]` [Example 7, tetrasodium salt of (S)-aspartic acid-N,N-diacetic acid], the “Compression strength after stored for 2 months” value was determined as 1.3 Kg/cm^2. Same read-out and setting: then `O=C(O)CN[C@@H](CC(=O)O)C(=O)O` [compound 5, (S)-aspartic acid-N-monoacetic acid, reference compound], with 2.8 Kg/cm^2; and `C[C@@H](C(=O)[O-])N(CC(=O)[O-])CC(=O)[O-].[Na+].[Na+].[Na+]` [Example 8, trisodium salt of (S)-α-alanine-N,N-diacetic acid], with 1.0 Kg/cm^2; and `CN(CC(=O)[O-])CC(=O)[O-].[Na+].[Na+]` [Example 29, disodium N-methyliminodiacetate], with 1.2 Kg/cm^2. With `O=C([O-])CN(CC(=O)[O-])c1ccccc1C(=O)[O-].[Na+].[Na+].[Na+]` [Example 30, trisodium salt of anthranilic acid-N,N-diacetic acid], the “Compression strength after stored for 2 months” value is 1.2 Kg/cm^2.

`O=C([O-])C[C@@H](C(=O)[O-])N(CC(=O)[O-])CC(=O)[O-].[Na+].[Na+].[Na+].[Na+]` [compound 3, tetrasodium salt of (S)-aspartic acid-N,N-diacetic acid, reference compound]: the “Compression strength after stored for 2 months” value stood at 3.2 Kg/cm^2. Still for that read-out and setting: the same measure for `O=C([O-])C[C@H](NCC(O)CN[C@@H](CC(=O)[O-])C(=O)[O-])C(=O)[O-].[Na+].[Na+].[Na+].[Na+]` [Example 55, tetrasodium (S,S)-2-hydroxy-1,3-propanediaminedisuccinate]: 1.2 Kg/cm^2; for `O=C([O-])C[C@H](NCCN[C@@H](CC(=O)[O-])C(=O)[O-])C(=O)[O-].[Na+].[Na+].[Na+].[Na+]` [compound 17, tetrasodium (S,S)-ethylenediaminedisuccinate, reference compound]: 2.9 Kg/cm^2. For `O=C(O)C[C@H](NCCN[C@@H](CC(=O)O)C(=O)O)C(=O)O` [Example 67, (S,S)-ethylenediaminedisuccinic acid], the “Compression strength after stored for 2 months” value is 1.1 Kg/cm^2.

`O=C([O-])CN(CC(=O)[O-])c1ccccc1C(=O)[O-].[Na+].[Na+].[Na+]` [compound 11, trisodium salt of anthranilic acid-N,N-diacetic acid, reference compound]: the “Compression strength after stored for 2 months” value was determined as 2.5 Kg/cm^2. As for `O=C(O)CN(CC(=O)O)c1ccccc1C(=O)O` [compound 14, anthranilic acid-N,N-diacetic acid, reference compound], the “Compression strength after stored for 2 months” value was determined as 2.5 Kg/cm^2.

The series is the same for the next values; noted with them: Load 200 (table head [Kg]; text 200 g/cm^2); 20-30° C., relative humidity 40-70%.
In the case of `O=C([O-])C[C@H](NCCN[C@@H](CC(=O)[O-])C(=O)[O-])C(=O)[O-].[Na+].[Na+].[Na+].[Na+]` [Example 47, tetrasodium (S,S)-ethylenediaminedisuccinate], the “Compression strength after stored for 2 months” value was 1.2 Kg/cm^2. On the same count and under the same terms, the same measure for `O=C([O-])C[C@H](NCCN[C@@H](CC(=O)[O-])C(=O)[O-])C(=O)[O-].[Cu+2].[Na+].[Na+]` [Example 80, copper disodium (S,S)-ethylenediaminedisuccinate]: 1.0 Kg/cm^2; for `O=C(O)C[C@H](NCC(O)CN[C@@H](CC(=O)O)C(=O)O)C(=O)O` [Example 65, (S,S)-2-hydroxy-1,3-propanediaminedisuccinic acid]: 1.0 Kg/cm^2; for `O=C([O-])C[C@H](NCCN[C@@H](CC(=O)[O-])C(=O)[O-])C(=O)[O-].[Fe+3].[NH4+]` [Example 79, iron ammonium (S,S)-ethylenediaminedisuccinate]: 0.9 Kg/cm^2. Same read-out and setting: then `O=C(O)C[C@@H](C(=O)O)N(CC(=O)O)CC(=O)O` [Example 15, (S)-aspartic acid-N,N-diacetic acid], with 0.9 Kg/cm^2; and `O=C([O-])CC(NCCCNC(CC(=O)[O-])C(=O)[O-])C(=O)[O-].[Na+].[Na+].[Ni+2]` [Example 84, nickel disodium (S,S)-1,3-propanediaminedisuccinate], with 1.0 Kg/cm^2. On the same count and under the same terms, the same measure for `C[C@@H](C(=O)O)N(CC(=O)O)CC(=O)O` [Example 16, (S)-α-alanine-N,N-diacetic acid]: 0.8 Kg/cm^2; for `O=C(O)CN(CCS(=O)(=O)O)CC(=O)O` [Example 34, taurine-N,N-diacetic acid]: 1.2 Kg/cm^2. For `CN(CC(=O)O)CC(=O)O` [Example 35, N-methyliminodiacetic acid], the “Compression strength after stored for 2 months” value was 0.8 Kg/cm^2.

Still in this series, the particulars now being: Load 300 (table head [Kg]; text 300 g/cm^2); 20-30° C., relative humidity 40-70%.
With `O=C([O-])C[C@H](NCC(O)CN[C@@H](CC(=O)[O-])C(=O)[O-])C(=O)[O-].[Na+].[Na+].[Na+].[Na+]` [Example 60, tetrasodium (S,S)-2-hydroxy-1,3-propanediaminedisuccinate], the “Compression strength after stored for 2 months” value came to 1.2 Kg/cm^2. For the molecule `O=C(O)CN[C@@H](CC(=O)O)C(=O)O` [Example 21, (S)-aspartic acid-N-monoacetic acid], the “Compression strength after stored for 2 months” value was found to be 0.8 Kg/cm^2. Still for that read-out and setting: then `O=C(O)C[C@H](NCCCN[C@@H](CC(=O)O)C(=O)O)C(=O)O` [Example 74, (S,S)-1,3-propanediaminedisuccinic acid], with 1.2 Kg/cm^2; and `O=C(O)CN(CC(=O)O)c1ccccc1C(=O)O` [Example 42, anthranilic acid-N,N-diacetic acid], with 1.1 Kg/cm^2. As to `O=C([O-])CC(NCCNC(CC(=O)[O-])C(=O)[O-])C(=O)[O-].[Na+].[Na+].[Na+].[Na+]` (centres unmarked) [Example 56, tetrasodium ethylenediaminedisuccinate], the “Compression strength after stored for 2 months” value is on record as 0.8 Kg/cm^2. Regarding `CN(CC(=O)O)CC(=O)O` [Example 41, N-methyliminodiacetic acid], the “Compression strength after stored for 2 months” value is on record as 1.0 Kg/cm^2.

Consider `O=C([O-])C[C@@H](C(=O)[O-])N(CC(=O)[O-])CC(=O)[O-].[Na+].[Na+].[Na+].[Na+]` [Example 11, tetrasodium salt of (S)-aspartic acid-N,N-diacetic acid], for which the “Compression strength after stored for 2 months” value is recorded as 0.8 Kg/cm^2.

Turning to `O=C(O)CCN[C@@H](CC(=O)O)C(=O)O` [Example 22, (S)-aspartic acid-N-monopropionic acid], the “Compression strength after stored for 2 months” value is 0.9 Kg/cm^2.

Staying with this series, now noted: after 2 months under the load of 200 [g/cm^2].
As to `O=C([O-])CN[C@@H](CC(=O)[O-])C(=O)[O-].[Na+].[Na+].[Na+]` [Example 1, trisodium salt of (S)-aspartic acid-N-monoacetic acid], the “compression strength of the test piece” value came to 1.2 kg/cm^2 and the “state of the test piece after storage” value is reported as “it could be disintegrated without any special grinding treatment”.
